Assay results from patent US8476253B2, “Amide derivative” (Daiichi Sankyo Company, Limited, priority 2009, dated 2013).
Where a name gives a salt, the structure may show the parent alone. Read-outs that look alike come from different tables or passages of the source.

Tests used:
human M3 receptor = target: T1, human M3 receptor (Homo sapiens, UniProt P20309); assay: Test for binding to human M3 receptor
T1 construct: expressed in transfected cells; host or cells: CHO cells
Method in brief: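 CHO-cell crude membranes expressing human M3 were incubated with [N-methyl-3H]-(−)-scopolamine methyl chloride in 50 mM Tris-HCl, 0.5 mM EDTA, pH 7.4, for 60 min at room temperature. Bound ligand was collected on PEI-pretreated glass-fibre filters and counted by liquid scintillation. Ki was calculated from IC50 and the radioligand Kd.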

human NK2 receptor = target: T2, human NK2 receptor (Homo sapiens, UniProt P21452); assay: Test for binding to human NK2 receptor
T2 construct: expressed in transfected cells; host or cells: COS cells
T2 sequence (P21452 1-398): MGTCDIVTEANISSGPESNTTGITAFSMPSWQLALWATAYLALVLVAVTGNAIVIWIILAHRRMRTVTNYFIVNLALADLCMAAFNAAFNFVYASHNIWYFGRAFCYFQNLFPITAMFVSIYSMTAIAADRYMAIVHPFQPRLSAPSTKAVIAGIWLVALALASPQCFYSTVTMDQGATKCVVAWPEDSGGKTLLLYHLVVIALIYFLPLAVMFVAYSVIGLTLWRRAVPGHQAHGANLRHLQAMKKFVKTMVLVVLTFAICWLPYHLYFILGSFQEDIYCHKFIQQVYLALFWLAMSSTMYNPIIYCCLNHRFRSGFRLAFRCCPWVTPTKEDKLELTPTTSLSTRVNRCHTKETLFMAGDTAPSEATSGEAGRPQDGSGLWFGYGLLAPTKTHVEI
Method in brief: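 Radioligand binding with [^3H]SR 48968 on cryopreserved COS cells expressing human NK2 receptor (5.0×10^5 cells/mL), in 50 mM Tris-HCl pH 7.4 with BSA, MnCl2 and protease inhibitors. Bound label collected on PEI-treated GF/B filters, counted by liquid scintillation; Ki derived from IC50 and radioligand Kd.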

neurokinin NK1 receptor = target: T3, neurokinin NK1 receptor (Cavia porcellus, UniProt P30547); assay: Effect of suppressing substance P-induced airway contraction (in vivo, intratracheal administration); set-up: species or system guinea pig; details: guinea pigs, intratracheal administration 60 minutes before 20 μg/kg i.v. SP, AUC of increase in airway pressure over 10 minutes; for ED50: guinea pig, read-out: ID50 (the source's name)
T3 construct: Using healthy guinea pigs (body weight, 350 to 550 g; Hartley male guinea pigs); from tissue; host or cells: live anaesthetised Hartley male guinea pigs (airway, in vivo)
T3 sequence (P30547 whole entry): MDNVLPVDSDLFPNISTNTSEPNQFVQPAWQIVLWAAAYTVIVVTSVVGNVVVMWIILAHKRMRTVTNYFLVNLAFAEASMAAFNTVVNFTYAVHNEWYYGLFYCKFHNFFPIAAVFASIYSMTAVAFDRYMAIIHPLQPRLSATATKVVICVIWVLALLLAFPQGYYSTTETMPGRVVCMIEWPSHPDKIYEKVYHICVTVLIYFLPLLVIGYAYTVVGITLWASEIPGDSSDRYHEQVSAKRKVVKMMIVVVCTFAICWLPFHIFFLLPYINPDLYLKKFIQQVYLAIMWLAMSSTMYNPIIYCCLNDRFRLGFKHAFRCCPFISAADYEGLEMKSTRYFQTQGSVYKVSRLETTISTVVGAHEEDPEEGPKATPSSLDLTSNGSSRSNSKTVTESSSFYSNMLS
Method in brief: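 Anaesthetised, gallamine-paralysed, ventilated male Hartley guinea pigs; compound in 5% glucose given intratracheally 60 min before 20 μg/kg i.v. substance P. Airway-pressure increase AUC over 10 min, inhibition versus vehicle group, expressed as ID50.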

[1] = CHO cells expressing human M3 receptor, [N-methyl-3H]-(-)-Scopolamine methyl chloride 0.5 nM, Ki from IC50 and Kd, read-out: Ki
[2] = COS cells expressing human NK2 receptor, [3H]SR 48968 1 nM, Ki from IC50 and Kd, read-out: Ki

T1 sequence (P20309 whole entry): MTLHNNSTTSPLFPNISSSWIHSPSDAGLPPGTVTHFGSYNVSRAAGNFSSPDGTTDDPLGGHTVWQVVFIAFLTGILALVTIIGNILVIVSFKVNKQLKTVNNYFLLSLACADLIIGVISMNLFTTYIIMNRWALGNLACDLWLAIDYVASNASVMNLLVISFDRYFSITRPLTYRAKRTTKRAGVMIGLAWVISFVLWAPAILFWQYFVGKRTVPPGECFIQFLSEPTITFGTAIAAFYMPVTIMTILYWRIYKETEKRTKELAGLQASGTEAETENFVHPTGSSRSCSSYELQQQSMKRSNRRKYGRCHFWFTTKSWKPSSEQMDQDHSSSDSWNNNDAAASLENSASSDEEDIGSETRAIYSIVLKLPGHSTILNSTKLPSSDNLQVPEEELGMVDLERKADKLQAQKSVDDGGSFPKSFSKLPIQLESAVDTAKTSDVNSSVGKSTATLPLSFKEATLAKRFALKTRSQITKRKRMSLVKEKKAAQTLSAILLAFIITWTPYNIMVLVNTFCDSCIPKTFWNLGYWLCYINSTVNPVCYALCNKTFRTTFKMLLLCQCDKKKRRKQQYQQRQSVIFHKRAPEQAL

Row | Compound | Ki (human M3 receptor) [nM] | Ki (human NK2 receptor) [nM] | ED50 (neurokinin NK1 receptor) [mg/kg] | Ki (human M3 receptor; [1]) [nM] | Ki (human NK2 receptor; [2]) [nM] | ID50 (neurokinin NK1 receptor) [mg/kg]
1 | Cc1cc(NCCCCCC(=O)N(C)CCN2CCC(OC(=O)Nc3ccccc3-c3ccccc3)CC2)sc1C(=O)N(C)CCCN(C)C(=O)CO[C@H]1Cc2ccccc2C12CCN(CC[C@@]1(c3ccc(F)cc3)CN(C(=O)c3cc(C(F)(F)F)cc(C(F)(F)F)c3)CO1)CC2 [Example 30, 1-(2-{[6-({5-[{3-[({[(2S)-1′-{2-[(5R)-3-[3,5-Bis(trifluoromethyl)benzoyl]-5-(4-fluorophenyl)-1,3-oxazolidin-5-yl]ethyl}-2,3-dihydrospiro[indene-1,4′-piperidin]-2-yl]oxy}acetyl)(methyl)amino]propyl}(methyl)carbamoyl]-4-methyl-2-thienyl}amino)hexanoyl](methyl)amino}ethyl)piperidin-4-yl biphenyl-2-ylcarbamate trihydrochloride] | 0.62 | 0.71 | 0.0388 |  |  | 
2 | CN(CCN1CCC(OC(=O)Nc2ccccc2-c2ccccc2)CC1)C(=O)CCCCCNc1ccc(C(=O)N(C)CCN(C)C(=O)CO[C@H]2Cc3ccccc3C23CCN(CC[C@@]2(c4ccc(F)cc4)CN(C(=O)c4cc(C(F)(F)F)cc(C(F)(F)F)c4)CO2)CC3)cc1 [Example 15, 1-(2-{[6-({4-[{2-[({[(2S)-1-{2-[(5R)-3-[3,5-Bis(trifluoromethyl)benzoyl]-5-(4-fluorophenyl)-1,3-oxazolidin-5-yl]ethyl}-2,3-dihydrospiro[indene-1,4′-piperidin]-2-yl]oxy}acetyl)(methyl)amino]ethyl}(methyl)carbamoyl]phenyl}amino)hexanoyl](methyl)amino}ethyl)piperidin-4-yl biphenyl-2-ylcarbamate] |  |  |  | 1.2 | 0.91 | 0.0224
3 | Cc1cc(NCCCCCC(=O)N(C)CCN2CCC(OC(=O)Nc3ccccc3-c3ccccc3)CC2)ccc1C(=O)N(C)CCCN(C)C(=O)CO[C@H]1Cc2ccccc2C12CCN(CC[C@@]1(c3ccc(F)cc3)CN(C(=O)c3cc(C(F)(F)F)cc(C(F)(F)F)c3)CO1)CC2 [Example 18, 1-(2-{[6-({4-[{3-[({[(2S)-1′-{2-[(5R)-3-[3,5-Bis(trifluoromethyl)benzoyl]-5-(4-fluorophenyl)-1,3-oxazolidin-5-yl]ethyl}-2,3-dihydrospiro[indene-1,4′-piperidin]-2-yl]oxy}acetyl)(methyl)amino]propyl}(methyl)carbamoyl]-3-methylphenyl}amino)hexanoyl](methyl)amino}ethyl)piperidin-4-yl biphenyl-2-ylcarbamate trihydrochloride] | 1.2 | 0.42 | 0.0614 |  |  | 
4 | CN(CCN1CCC(OC(=O)Nc2ccccc2-c2ccccc2)CC1)C(=O)CCCCCNc1ncc(C(=O)N(C)CCCN(C)C(=O)CO[C@H]2Cc3ccccc3C23CCN(CC[C@@]2(c4ccc(F)cc4)CN(C(=O)c4cc(C(F)(F)F)cc(C(F)(F)F)c4)CO2)CC3)cn1 [Example 14, 1-(2-{[6-({5-[{3-[({[(2S)-1′-{2-[(5R)-3-[3,5-Bis(trifluoromethyl)benzoyl]-5-(4-fluorophenyl)-1,3-oxazolidin-5-yl]ethyl}-2,3-dihydrospiro[indene-1,4′-piperidin]-2-yl]oxy}acetyl)(methyl)amino]propyl}(methyl)carbamoyl]pyrimidin-2-yl}amino)hexanoyl](methyl)amino}ethyl)piperidin-4-yl biphenyl-2-ylcarbamate trihydrochloride] | 0.93 | 0.67 | 0.0172 |  |  | 
5 | CN(CCN1CCC(OC(=O)Nc2ccccc2-c2ccccc2)CC1)C(=O)CCCCCNc1ccc(C(=O)N(C)CCCN(C)C(=O)CO[C@H]2Cc3ccccc3C23CCN(CC[C@@]2(c4ccc(F)cc4)CN(C(=O)c4cc(C(F)(F)F)cc(C(F)(F)F)c4)CO2)CC3)nc1 [Example 9, 1-(2-{[6-({6-[{3-[({[(2S)-1′-{2-[(5R)-3-[3,5-Bis(trifluoromethyl)benzoyl]-5-(4-fluorophenyl)-1,3-oxazolidin-5-yl]ethyl}-2,3-dihydrospiro[indene-1,4′-piperidin]-2-yl]oxy}acetyl)(methyl)amino]propyl}(methyl)carbamoyl]pyridin-3-yl}amino)hexanoyl](methyl)amino}ethyl)piperidin-4-yl biphenyl-2-ylcarbamate] |  |  | 0.0348 | 1.3 | 0.66 | 
6 | CN(CCN1CCC(OC(=O)Nc2ccccc2-c2ccccc2)CC1)C(=O)CCCN(C)c1ccc(C(=O)N(C)CCCN(C)C(=O)CO[C@H]2Cc3ccccc3C23CCN(CC[C@@]2(c4ccc(F)cc4)CN(C(=O)c4cc(C(F)(F)F)cc(C(F)(F)F)c4)CO2)CC3)cc1 [Example 36, 1-{2-[{4-[{4-[{3-[({[(2S)-1′-{2-[(5R)-3-[3,5-Bis(trifluoromethyl)benzoyl]-5-(4-fluorophenyl)-1,3-oxazolidin-5-yl]ethyl}-2,3-dihydrospiro[indene-1,4′-piperidin]-2-yl]oxy}acetyl)(methyl)amino]propyl}(methyl)carbamoyl]phenyl}(methyl)amino]butanoyl}(methyl)amino]ethyl}piperidin-4-yl biphenyl-2-ylcarbamate trihydrochloride] | 1.8 | 0.96 | 0.0236 |  |  | 
